From patent EP4629837B1, “ANIMAL FEED COMPOSITION HAVING A COMBINATION OF FENUGREEK AND NEOHESPERIDIN DIHYDROCHALCONE (NHDC) TO IMPROVE PERFORMANCE OF ANIMALS OR STIMULATE THEIR SWEET TASTE RECEPTORS” (ADM International Sàrl, priority 2022, dated 2024)
Where a SMILES comes first, the peptide text is derived from it.

Experiments:
[1] = target: T1, pig sweet taste receptors (Sus scrofa, UniProt I1ZBR6+Q0EF93); test: Activation of heterologously expressed pig sweet taste receptors in HEK293T-PEAK rapid Gα15 cells (Fluo-4 AM Ca2+ fluorescence, dose-response); format: cell-based; conditions: single compounds and 1:4 combination, heterologous system of Example 1
T1 sequence (I1ZBR6 entry or part of it): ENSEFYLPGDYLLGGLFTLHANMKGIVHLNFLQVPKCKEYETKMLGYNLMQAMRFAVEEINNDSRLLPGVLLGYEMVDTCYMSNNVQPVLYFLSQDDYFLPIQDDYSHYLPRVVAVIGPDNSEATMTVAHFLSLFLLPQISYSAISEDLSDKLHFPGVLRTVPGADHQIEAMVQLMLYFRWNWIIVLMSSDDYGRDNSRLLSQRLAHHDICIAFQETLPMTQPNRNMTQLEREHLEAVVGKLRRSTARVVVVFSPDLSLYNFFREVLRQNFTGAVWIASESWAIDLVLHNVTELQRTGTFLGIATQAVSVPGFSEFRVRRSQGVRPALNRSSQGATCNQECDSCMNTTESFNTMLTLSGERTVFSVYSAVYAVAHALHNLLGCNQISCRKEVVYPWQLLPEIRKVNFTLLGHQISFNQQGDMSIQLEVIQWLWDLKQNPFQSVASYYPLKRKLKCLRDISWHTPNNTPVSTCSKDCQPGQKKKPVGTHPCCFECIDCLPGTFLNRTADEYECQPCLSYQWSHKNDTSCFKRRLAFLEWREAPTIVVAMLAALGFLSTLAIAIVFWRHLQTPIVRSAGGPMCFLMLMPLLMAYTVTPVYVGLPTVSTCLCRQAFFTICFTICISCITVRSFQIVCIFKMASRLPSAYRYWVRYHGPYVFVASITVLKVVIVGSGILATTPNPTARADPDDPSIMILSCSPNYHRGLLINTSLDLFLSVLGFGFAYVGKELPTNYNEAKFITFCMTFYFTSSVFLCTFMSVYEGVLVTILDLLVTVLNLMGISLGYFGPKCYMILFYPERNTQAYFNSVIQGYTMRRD
T1 sequence (Q0EF93 entry or part of it): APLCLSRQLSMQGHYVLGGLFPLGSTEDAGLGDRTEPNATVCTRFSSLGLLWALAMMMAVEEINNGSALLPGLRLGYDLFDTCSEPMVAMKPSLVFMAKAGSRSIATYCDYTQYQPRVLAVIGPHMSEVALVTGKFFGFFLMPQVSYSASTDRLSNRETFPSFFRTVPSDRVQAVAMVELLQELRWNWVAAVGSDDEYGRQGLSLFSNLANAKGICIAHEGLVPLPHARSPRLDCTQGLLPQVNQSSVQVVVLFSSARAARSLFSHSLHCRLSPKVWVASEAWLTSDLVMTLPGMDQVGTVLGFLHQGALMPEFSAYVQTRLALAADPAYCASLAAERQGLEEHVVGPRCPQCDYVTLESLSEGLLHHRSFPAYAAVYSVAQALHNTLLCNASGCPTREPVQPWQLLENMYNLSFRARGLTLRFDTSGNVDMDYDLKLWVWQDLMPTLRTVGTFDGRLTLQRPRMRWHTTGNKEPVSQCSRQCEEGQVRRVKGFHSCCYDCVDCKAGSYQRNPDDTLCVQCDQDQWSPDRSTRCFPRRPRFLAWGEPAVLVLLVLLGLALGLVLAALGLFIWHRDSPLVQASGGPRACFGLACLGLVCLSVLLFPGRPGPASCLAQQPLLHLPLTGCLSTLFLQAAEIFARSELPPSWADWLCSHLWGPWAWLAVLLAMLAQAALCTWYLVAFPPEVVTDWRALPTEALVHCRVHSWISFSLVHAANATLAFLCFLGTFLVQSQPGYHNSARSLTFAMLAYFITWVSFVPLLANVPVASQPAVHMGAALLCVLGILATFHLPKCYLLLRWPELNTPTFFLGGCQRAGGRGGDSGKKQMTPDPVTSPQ
Description: For the production of pig sweet taste receptor constructs, full length coding sequences of pig taste receptors T1R2 and T1R3 of pigs were synthesized and ligated into modified expression vectors pcDNA3/TO and pcDNA5/FRT/PM for evaluation. Amino-terminal sst-tags were added to facilitate cell membrane targeting, cytomegalovirus (CMV) promoters were added to control gene expression, and carboxylterminal FLAG or HSV tags were added to enable immunological detection of receptor subunits 1,2. […]
Functional expression of sweet taste receptors. The pig sweet taste receptor function was analyzed by transfecting the HEK293T-PEAK rapid Gα15 cells with taste receptor constructs described herein. […]
The transfected cells were analyzed with each of the sweeteners/compounds individually using a wide range of concentrations. The ligand binding and subsequent activation of the taste receptor causes an influx of Ca^2+ ions into the cell, which can be measured as an increase in fluorescent signaling using a microplate reader as shown in Figure 2.
The dose-response curves are calculated by using mean fluorescence values of multiple wells receiving the same concentration of sweetener/compound, and subtracting fluorescence changes of corresponding cells transfected with empty vector (ΔF). Signals are normalized to background fluorescence (ΔF/F). […]

pig intestine = conditions: Daly et al.; cited from earlier work
[2] = target: T1, pig sweet taste receptors; conditions: Daly et al.; cited from earlier work

Compound | In vitro EC50 (mg/ml) for pig sweet taste receptors [1] [mg/mL] | glucose uptake in the pig intestine (pig intestine) | activation of pig sweet taste receptors in vitro [2]
COc1ccc(CCC(=O)c2c(O)cc(O[C@@H]3O[C@H](CO)[C@@H](O)[C@H](O)[C@H]3O[C@@H]3O[C@@H](C)[C@H](O)[C@@H](O)[C@H]3O)cc2O)cc1O [NHDC # 020D066, 1-(4-((2-O-[6-Deoxy-α-L-mannopyranosyl]-β-D-glucopyranosyl)oxy)-2,6-dihydroxyphenyl)-3-[3-hydroxy-4-methoxyphenyl]-1-poranone] | 0.62 | – | –
C=C1C[C@@]23CC[C@H]4[C@@](C)(CCC[C@@]4(C)C(=O)O[C@@H]4O[C@H](CO)[C@@H](O)[C@H](O)[C@H]4O)[C@@H]2CC[C@]1(O[C@@H]1O[C@H](CO)[C@@H](O)[C@H](O[C@@H]2O[C@H](CO)[C@@H](O)[C@H](O)[C@H]2O)[C@H]1O[C@@H]1O[C@H](CO)[C@@H](O)[C@H](O)[C@H]1O)C3 [Rebaudioside A] | 0.76 | – | –
COC(=O)[C@H](Cc1ccccc1)NC(=O)[C@@H](N)CC(=O)O [aspartame] (H-Asp-Phe-OMe) | – | do not induce higher glucose uptake in the pig intestine | do not activate pig sweet taste receptors in vitro
